Assay results as given in US4937346A, “Phenyl-azacykloalkanes” (Carlsson; Per Arvid Emil, priority 1979, dated 1990).
Structures can show the parent of a compound that is named as a salt. Where two headings read alike, the source gives them in different places.

Key:
[1] = tested on: presynaptic dopaminergic receptor (autoreceptor); assay: Spontaneous exploratory motor activity of rats, enantiomers of 3-PPP; assay type: in vivo, rat
Experimental: 1. Evidence for presynaptic dopaminergic receptor (autoreceptor) agonist activity of both enantiomers of 3-PPP. Both enantiomers of 3-PPP cause a dose-dependent decrease in spontaneous exploratory motor activity of rats. […] However, the (+)-enantiomer causes a decrease only after doses between 0.25 and 4 mg/kg s.c.

[2] = tested on: dopa formation; assay: Dopa formation and dopamine metabolite levels in rats not pretreated with GBL or reserpine; assay type: in vivo, rat
[3] = tested on: postsynaptic dopaminergic receptors; assay: Locomotor activity in reserpine-treated rats, enantiomers of 3-PPP; assay type: in vivo, rat
Excerpt: 2. Evidence for postsynaptic dopaminergic receptor agonist activity of (+)-3-PPP.

[4] = tested on: dopaminergic receptors (presynaptic and postsynaptic); assay: Dopaminergic receptor profile of 3-PPP and its enantiomers (summary of tests); assay type: in vivo; conditions: summary of enantiomer tests
Excerpt: The two enantiomers of 3-PPP have now been tested separately.

[5] = tested on: rat brain tyrosine hydroxylation; assay: In-vivo determination of rat brain tyrosine hydroxylation (Dopa formation after NSD 1015, reserpine-pretreated rats); conditions: sc
Experimental: 2. In-vivo determination of rat brain tyrosine hydroxylation.
The compounds under evaluation were tested biochemically for central DA-receptor (pre- and/or postsynaptic) stimulating activity. The concept of this biochemical screening method is that a DA-receptor agonist will stimulate the receptor and through regulatory feedback systems effect a decline in tyrosine hydroxylase activity and thus a subsequent reduction in the synthesis rate for DA in the presynaptic neuron. Dopa formation, as determined after in-vivo inhibition of the aromatic L-amino acid decarboxylase with NSD 1015 (3-hydroxybenzyl-hydrazine hydrochloride), is taken as an indirect measure of DA synthesis rate.
Rats (150-300 g) pretreated with reserpine were given the compounds under evaluation. Gross behavioral observations (changes in motility, stereotypies etc.) were made in order to evaluate possible postsynaptic dopamine receptor activity. Subsequent administration of NSD 1015, decapitation, brain dissection (corpora striate and the limbic fore-brain), homogenization, centrifugation, ion-exchange chromatography and spectrofluorimetric measurements (all as described in detail by Wikstrom et al., in J. Med. Chem. 21, 864-867, 1978, and references cited therein), gave the actual Dopa levels. Several doses (n=4-6) were tested in order to obtain dose-response curves for each compound and brain area. The dose of a compound producing a half-maximal decrease in the Dopa level in the rat brain part was then estimated.

[6] = tested on: central postsynaptic DA-receptor; assay: Locomotor activity in reserpine-pretreated rats, comparison of compound 4 with two known dopaminergic agonists; assay type: in vivo, rat; conditions: for Motor activity: 0-60 min postinj.; for central postsynaptic DA-receptor stimulation / motor response: s.c.
Experimental: Rats (150-300 g) pretreated with reserpine (10 mg/ kg i.p., 6 h before) were given either phys. saline, compound 4 (100 μmol/kg), N-n-propyl-3-(3,4-dihydroxyphenyl)piperidine (100 μmol/kg) or apomorphine ([…]) subcutaneously and the locomotor activity (accumulated counts 0-60 min.) was quantified by means of Motron boxes (see under 4 above).

[7] = tested on: postsynaptic dopaminergic receptor; assay: Antagonism of apomorphine-induced locomotor stimulation; assay type: in vivo, rat; conditions: apomorphine 1 mg/kg s.c., means ± s.e.m., n=10
Experimental: 3. Evidence for postsynaptic dopminergic receptor antagonist activity of (-)-3-PPP.
The locomotor stimulating action of the dopamine receptor aqonist apomorphine is antagonized by (-)-3-PPP. […] Thus the postsynaptic receptor antagonist activity requires a larger dose than the presynaptic receptor agonist activity, which is evident after doses down to 0.25 mg/kg.
Further, (-)-3-PPP and racemic 3-PPP have been compared regarding antagonism of apomorphine-induced locomotor stimulation. Either form of 3-PPP was injected subcutaneously in a dose of 8 mg/kg 20 min and apomorphine in a dose of 1 mg/kg subcutaneously 5 min before placing the rats in the Motron for 30 min. Shown are the counts per 30 min., means± s.e.m. and number of experiments (n).

[8] = tested on: postsynaptic DA receptors; assay: Antagonism of the reserpine-induced "neuroleptic syndrome" in the rat; assay type: in vivo; conditions: 20 mg/kg s.c.
Excerpt: 1. Antagonism of the reserpine-induced "neuroleptic syndrome" in the rat
Depletion of the monoamine stores with reserpine brings about a "neuroleptic syndrome" characterized by hypomotility, catalepsy, muscle rigidity, hunch-backed posture as well as a number of other central and peripheral signs of monoamine depletion. This syndrome can be reversed by the administration of drugs that stimulate postsynaptic DA receptors directly or indirectly, e.g. apomorphine, L-Dopa.
Rats (150-300 g) pretreated with reserpine (10 mg/kg i.p., 6 h before) were given compound 4 subcutaneously at different doses.

[9] = tested on: DA autoreceptors; assay: Effect on spontaneous locomotor activity in the rat; assay type: in vivo; conditions: 0-15 min; haloperidol 0.02 mg/kg i.p. 25 min before + saline, n=5
Excerpt: 4. Effect on spontaneous locomotor activity in the rat.
Untreated animals exposed to a new environment display an initial high motor activity which then gradually declines over a period of time. Administration of DA-receptor agonists (e.g. apomorphine) in doses where preferential autoreceptor stimulation is likely to occur, causes a depression of the spontaneous motility mentioned above, considered to be due to the DA autoreceptor-mediated impairment of central DA transmission.
Rats (150-300 g) were injected subcutaneously with several doses of compounds 4 and after 5 minutes they were individually placed in motility boxes ("M/P 40 Fc Electronic Motility Meter". Motron Products, Stockholm) and the motor activity (0-30 min.) was quantified. […] Moreover, there seems to be a correlation between the decrease in spontaneous locomotion and the degree of antagonism of the GBL-induced increase in DA synthesis (cf. 3 above) in the limbic areas of rat brain exerted by compound 4, the per cent decrease of motor activity being roughly 0.6 times the per cent reversal of GBL-induced increase in DA-synthesis rate.

[10] = limbic, inactive, read-out: ED50 Limbic (class symbol)
[11] = striatum, inactive, read-out: ED50 Striatum (class symbol)
[12] = reserpine-pretreated rats, Dopa level, limbic, read-out: ED50 Limbic
[13] = reserpine-pretreated rats, Dopa level, striatum, read-out: ED50 Striatum

Row | SMILES | ED50 [5, 12] [µmol/kg] | ED50 [5, 13] [µmol/kg] | further results
1 | CCCN1CCCC(c2cccc(O)c2)C1 (single isomer, unassigned; (+)) [(+)-3-PPP, reference compound] |  |  | effect on locomotor activity ([1]; 8 mg/kg s.c.): no effect; increase of locomotor activity to % of control ([1]; 64 mg/kg s.c.): more than 200 % of control; decrease of locomotor activity to % of control ([1]; s.c., first 30 min): 30-40 % of control; dopa formation ([2]; 0.053 to 64 mg/kg, no pretreatment): decrease; levels of 3,4-dihydroxyphenyl acetic acid and homovanillic acid ([2]; matched to the changes in dopa formation): corresponding changes in the levels of the dopamine metabolites; effect of haloperidol on locomotor stimulation ([3]; haloperidol): blocked by haloperidol; stimulation of locomotor activity ([3]; reserpine-treated rats, (+)-form 0.25 to 64 mg/kg): marked stimulation of locomotor activity; activity on presynaptic and postsynaptic dopaminergic receptors [4]: dopaminergic receptor agonist by activating both the presynaptic and the postsynaptic receptors
2 | Oc1cccc(C2CCNC2)c1 (centres unmarked) [1 OH H HBr, reference compound] |  |  | ED50 [5, 10]: > 90 µmol/kg; ED50 [5, 11]: > 90 µmol/kg
3 | CCCN1CCCC(c2cccc(OC)c2)C1 (centres unmarked) [2 OCH3 n-C3 H7 HBr, N-Propyl-3-(3-methoxyphenyl)piperidine hydrobromide, reference compound] |  |  | ED50 [5, 10]: > 180 µmol/kg; ED50 [5, 11]: > 180 µmol/kg
4 | CN1CCc2cccc3c2[C@H]1Cc1ccc(O)c(O)c1-3 [Apomorphine, reference compound] | 0.19 | 0.22 | Motor activity ([6]; 2 μmol/kg s.c.): 624 ± 51 acc. counts; central postsynaptic DA-receptor stimulation / motor response [6]: strong central postsynaptic DA-receptor stimulatory effects; counts per 30 min., apomorphine alone [7]: 513 ± 35 counts per 30 min.
5 | CN1CCCC(c2cccc(O)c2)C1 (centres unmarked) [Compound 1] | 2.1 | 1.5 | 
6 | CCCN1CCC(c2cccc(O)c2)C1 (centres unmarked) [Compound 3, N-propyl-30(3-hydroxyphenyl)pyrrolidine] | ~45 | ~45 | 
7 | CCCCN1CCCC(c2cccc(O)c2)C1 (centres unmarked) [Compound 5, N-butyl-3-(3-hydroxphenyl)piperidine] | 1.7 | 0.7 | 
8 | CCCCCN1CCCC(c2cccc(O)c2)C1 (centres unmarked) [Compound 6, N-pentyl-3-(3-hydroxyphenyl)piperidine hydrochloride] | 0.9 | 0.6 | 
9 | CC(C)N1CCCC(c2cccc(O)c2)C1 (centres unmarked) [Compound 7, N-isopropyl-3-(3-hydroxphenyl)piperidine] | 0.8 | 0.7 | antagonism of the reserpine-induced syndrome [8]: No antagonism of the reserpine-induced syndrome was seen
10 | C=CCN1CCCC(c2cccc(O)c2)C1 (centres unmarked) [Compound 9] | 4.2 | 4 | 
11 | CCCN1CCCC(c2cccc(OC(C)=O)c2)C1 (centres unmarked) [Compound 10, N-n-Propyl-3-(3-acetoxyphenyl)piperidine hydrochloride] | 1.2 | 1.5 | 
12 | CCCN1CCCC(c2cccc(OC(=O)C(C)(C)C)c2)C1 (centres unmarked) [Compound 11] | 2.2 | 1.7 | 
13 | CCCN1CCCC(c2cccc(OC(=O)c3ccccc3)c2)C1 (centres unmarked) [Compound 12, N-n-Propyl-3-(3-benzoyloxyphenyl)piperidine hydrochloride] | 1.8 | 2 | 
14 | OCCN1CCCC(c2cccc(O)c2)C1 (centres unmarked) [Compound 13, 2-[3-(3-Hydroxyphenyl)-piperidino]ethanol hydrochloride] | ~20 | ~20 | 
15 | CN(C)CCN1CCCC(c2cccc(O)c2)C1 (centres unmarked) [Compound 14] | ~20 | ~20 | 
16 | C=CCOc1cccc(C2CCCN(CCC)C2)c1 (centres unmarked) [Compound 16, N-n-Propyl-3-(3-allyloxyphenyl)piperidine hydrochloride] | < 45 | < 45 | 
17 | CCCN1CCCC(c2cccc(OCc3ccccc3)c2)C1 (centres unmarked) [Compound 17, N-n-Propyl-3-(3-benzyloxyphenyl)piperidine hydrochloride] | < 45 | < 45 | 
18 | CCCN1CCCC(c2cccc(OC(=O)Nc3ccccc3)c2)C1 (centres unmarked) [Compound 18, N-n-Propyl-3[3-(phenylcarbamoyloxy)phenyl]-piperidine hydrochloride] |  |  | ED50 ([5]; read-out: ED50 Limbic): < 45 µmol/kg; ED50 ([5]; read-out: ED50 Striatum): < 45 µmol/kg
19 | CCCN1CCCC(c2cccc(OC(=O)c3c(C)cccc3C)c2)C1 (centres unmarked) [Compound 19, N-n-Propyl-3-[2,6-dimethylbenzoyloxy)-phenyl]piperidine hydrochloride] | < 45 | < 45 | 
20 | CCCN1CCCC(c2cccc(OC(=O)c3ccc(OC(=O)C(C)(C)C)cc3)c2)C1 (centres unmarked) [Compound 20] | < 45 | < 45 | 
21 | CC(C)N1CCCC(c2cccc(OC(=O)c3ccccc3)c2)C1 (centres unmarked) [Compound 21] | 0.5 | 0.5 | 
22 | CCCCN1CCCC(c2cccc(OC(=O)c3ccccc3)c2)C1 (centres unmarked) [Compound 22] | < 2.7 | < 2.7 | 
23 | O=C(CCCN1CCC(O)(c2ccc(Cl)cc2)CC1)c1ccc(F)cc1 [Haloperidol, reference compound] |  |  | Motor activity [9]: 140 ± 22 acc. counts
24 | CCCN1CCCC(c2ccc(O)c(O)c2)C1 (centres unmarked) [N-n-propyl-3-(3,4-dihydroxyphenyl)piperidine, reference compound] | 9.4 | 10 | Motor activity ([6]; 100 μmol/kg s.c.): 522 ± 83 acc. counts; central postsynaptic DA-receptor stimulation / motor response [6]: strong central postsynaptic DA-receptor stimulatory effects
